Data taken from patent publication US20230241038A1, “METHOD OF TREATING RNA REPEAT MEDIATED DISEASES WITH RNA REPEAT BINDING COMPOUND” (AMO Pharma Ltd., priority 2021, published 2023).
pKd: −log10 of the molar value. “Also recorded” adds a separate entry of the source. Read-outs that look alike come from different tables or passages of the source.

Tests used:
[1] = target: RNA construct containing CUG repeats (RNA hairpin 1; SEQ ID NO:1); test: MicroScale Thermophoresis (MST) fluorescence binding assay, RNA hairpin 1; conditions: RNA hairpin 1 (CUG repeats)
Procedure: [The procedure below names another target; the source lists this target under the same test.] This direct binding was determined using a MicroScale Thermophoresis (MST) Fluorescence binding assays with Tideglusib and an RNA hairpin containing CUG repeats. […] MBNL1 has a well characterized role in myotonic dystrophy where impaired RNA splicing disrupts muscle development and function.
The method used for the MST fluorescence assay was as follows. A serial dilution of the ligand (Tideglusib) was prepared in a way to match the final buffer conditions in the reaction mix (assay buffer 20 mM HEPES pH 7.4, 0.05% Tween-20). The highest concentration of ligand was 500 μM and the lowest 15.3 nM. 5 μl of each dilution step were mixed with 5 μl of the fluorescent molecule. The final reaction mixture, which was filled in capillaries, contained a respective amount of ligand (max. conc. 250 μM, min. conc. 7.63 nM) and constant 50 nM fluorescent molecule. The samples were analyzed on a Monolith NT. 115 at 25° C., with 40% LED power and 40% Laser power. The fluorescence labeled RNA construct (RNA hairpin 2; produced by Metabion) had the following sequence: […]

patients having DM1 = test: Clinical Global Impression of Improvement in patients having DM1; assay type: in vivo, human; conditions: patients having DM1, 400 mg or 1000 mg
[2] = tested on: RNA construct containing CAG repeats (RNA hairpin 2; SEQ ID NO:2); test: MicroScale Thermophoresis (MST) fluorescence binding assay, RNA hairpin 2; conditions: RNA hairpin 2 (CAG repeats)
Procedure: The method used for the MST fluorescence assay was as follows. A serial dilution of the ligand (Tideglusib) was prepared in a way to match the final buffer conditions in the reaction mix (assay buffer 20 mM HEPES pH 7.4, 0.05% Tween-20). The highest concentration of ligand was 500 μM and the lowest 15.3 nM. 5 μl of each dilution step were mixed with 5 μl of the fluorescent molecule. The final reaction mixture, which was filled in capillaries, contained a respective amount of ligand (max. conc. 250 μM, min. conc. 7.63 nM) and constant 50 nM fluorescent molecule. The samples were analyzed on a Monolith NT. 115 at 25° C., with 40% LED power and 40% Laser power. The fluorescence labeled RNA construct (RNA hairpin 2; produced by Metabion) had the following sequence:
Binding to other RNA trinucleotide repeats was investigated by repeating the experimental protocol above with an RNA repeat construct containing CAG repeats (RNA hairpin 2).

[3] = target: RNA construct containing CUG repeats with interspersed interrupting non CUG repeats (RNA hairpin 3; SEQ ID NO:3); test: MicroScale Thermophoresis (MST) fluorescence binding assay, RNA hairpin 3
[4] = tested on: phosphorylated Akt (pAkt); test: Phosphorylated Akt in lymphocytes from pediatric subjects with Autism Spectrum Disorder; assay type: in vivo, human; conditions: 12 weeks, titrated 400 mg to 1000 mg oral once per day, versus placebo, p<0.0001
Procedure: (§1) In order to determine whether the clinical benefit produced by administration of Tideglusib could be related to inhibition of GSK3β, the activity of this kinase in circulating tissues in treated patients was determined. Lymphocyte cell pellets were lysed in 150 μl of cold NP40 Cell Lysis Buffer with protease inhibitors. Total protein of each extract was measured with DC Protein assay Kit according to the manufacturer specifications. For the analysis of GSK3β and related kinases, the commercially available kits AKT Pathway Total Multispecies 7-Plex Panel and the equivalent for the phosphorylated forms for Luminex® Platform from Thermo Fisher Scientific were used. These were the AKT Pathway (Total) 7-Plex Multispecies Panel (#LHO0002M ThermoFisher Scientific) that assays the following signaling proteins: GSK3β, Total IR, IGF-1R, IRS-1, Akt, PRAS40 and p70s6K. The AKT Pathway (Phospho) 7-Plex Multispecies Panel (#LHO0001M ThermoFisher Scientific) assays the following signaling proteins: GSK3β[pS9], IR[pYpY1162/1163], IGF-1R[pYpY1135/1136], IRS-1[[…]], Akt[pS473], PRAS40[[…]] and […]421/424].

JNK (pJNK) = test: Phosphorylated JNK in lymphocytes from pediatric subjects with Autism Spectrum Disorder; assay type: in vivo, human; conditions: 12 weeks, titrated 400 mg to 1000 mg oral once per day, versus placebo
ERK (pERK) = test: Phosphorylated ERK in lymphocytes from pediatric subjects with Autism Spectrum Disorder; assay type: in vivo, human; conditions: 12 weeks, titrated 400 mg to 1000 mg oral once per day, versus placebo
GSK3β = GSK3β kinase protein levels in lymphocytes from treated Congenital Onset DM1 patients; assay type: in vivo, human; conditions: 400 mg or 1000 mg po per day, six and twelve weeks of treatment
Procedure: Lymphocyte cell pellets were lysed in 150 μl of cold NP40 Cell Lysis Buffer with protease inhibitors. Total protein of each extract was measured with DC Protein assay Kit according to the manufacturer specifications. For the analysis of GSK3β and related kinases, the commercially available kits AKT Pathway Total Multispecies 7-Plex Panel and the equivalent for the phosphorylated forms for Luminex® Platform from Thermo Fisher Scientific were used. These were the AKT Pathway (Total) 7-Plex Multispecies Panel (#LHO0002M ThermoFisher Scientific) that assays the following signaling proteins: GSK3β, Total IR, IGF-1R, IRS-1, Akt, PRAS40 and p70s6K. The AKT Pathway (Phospho) 7-Plex Multispecies Panel (#LHO0001M ThermoFisher Scientific) assays the following signaling proteins: GSK3β[pS9], IR[pYpY1162/1163], IGF-1R[pYpY1135/1136], IRS-1[pS312], Akt[pS473], PRAS40[pT246] and p70s6K[pTpS421/424].

[5] = tested on: phosphorylated Akt (pAkt); test: Phosphorylated Akt (pAkt) levels in lymphocytes from treated Congenital Onset DM1 patients; assay type: in vivo, human; conditions: 400 mg or 1000 mg per day, six and twelve weeks of treatment
Procedure: as §1

## CCn1c(=O)sn(Cc2ccccc2)c1=O [Compound 2, 2-Benzyl-4-ethyl-[1,2,4]thiadiazolidine-3,5-dione]
[1]; data not shown, read-out: KD
  pKd: 4.50

## O=C(NCc1ccccc1)Nc1cccc2ccccc12 [urea derivative of Tideglusib, 1-benzyl-3-naphthalen-1-yl-urea]
[1]; MST
  binding to CUG repeat RNA (in words): no binding activity
[1]; MST, listed as main metabolite of Tideglusib
  binding to CUG repeat RNA (in words): No reliable binding

## O=c1sn(-c2cccc3ccccc23)c(=O)n1Cc1ccccc1 [Tideglusib, 4-Benzyl-2-naphthalen-1-yl-[1,2,4]thiadiazolidine-3,5-dione]
Patients having DM1
  clinical benefit, Clinical Global Impression of Improvement measurement scale: majority of patients having DM1 treated with Tideglusib showed clinical benefit
[2]
  binding to CAG repeat RNA (in words): No reliable of binding
[3]; RNA hairpin 3, CUG repeats with interrupting non CUG repeats, read-out: KD of binding
  pKd: 5.49
[3]; RNA hairpin 3, interspersed non CUG repeats (CCG and CUC), read-out: potency of binding
  pKd: 5.49
[3]; RNA hairpin 3 versus RNA hairpin 1
  fold less potent binding versus RNA hairpin 1: 162 fold
[4]
  inhibition of phosphorylation of Akt in lymphocytes: reduces levels of phosphorylation of Akt; also recorded: inhibited phosphorylation of Akt
JNK (pJNK)
  inhibition of phosphorylation of JNK in lymphocytes: did not inhibit phosphorylation
ERK (pERK)
  inhibition of phosphorylation of ERK in lymphocytes: did not inhibit phosphorylation
GSK3β
  effect on GSK3β levels in lymphocytes: Neither dose shows any effect
GSK3β; listed as Compound 1
  effect on GSK3β levels in lymphocytes: no effect
[1]; MST, 25° C., read-out: KD of binding
  pKd: 7.71
[5]
  effect on phosphorylated Akt (pAkt) levels in lymphocytes: not achieved; also recorded: unable overcome the phosphorylation of Akt
[5]; listed as Compound 1
  effect on phosphorylated Akt (pAkt) levels in lymphocytes: no effect
